Assay results published in patent publication US8710089B2, “Triazole derivatives as ghrelin analogue ligands of growth hormone secretagogue receptors” (Zentaris GmbH, priority 2005, dated 2014).

Target: T1, human GHS-R 1a (Homo sapiens, UniProt Q92847)
T1 construct: expressed in transfected cells; host or cells: LLC PK-1 porcine renal epithelial cells (ECACC No. 86121112), isolated plasma membranes
Assay: GHS-R 1a receptor-ligand binding assay (membrane preparations from transfected LLC PK-1 cells)
Settings: displacement of 125I-His9-ghrelin (60 pM); membranes of LLC PK-1 cells transfected with human GHS-R 1a; mean of at least two independent experiments in triplicates
Description: (J. Med. […] Med. Chem. 2003, 46: 1191-1203), were incubated in homogenization buffer HB [50 mM Tris (pH 7.3), 5 mM MgCl2, 2.5 mM EDTA, and 30 μg/mL bacitracin (Sigma)] for 60 min at 25° C. (steady-state conditions) with 60 pM ^125I-[…]-ghrelin (Amersham) in the presence or absence of competing compounds (compounds of the invention). […] Nonspecific binding was defined using an excess (10^-6 M) of ghrelin. The binding reaction was stopped by addition of 4 mL of ice-cold HB followed by rapid filtration over Whatman GP/C filters presoaked with 0.5% polyethyleneimine to prevent excessive binding of radioligand to the filters. […] IC50 values given are the mean of at least two independent experiments performed in triplicates.

T1 sequence (Q92847 whole entry): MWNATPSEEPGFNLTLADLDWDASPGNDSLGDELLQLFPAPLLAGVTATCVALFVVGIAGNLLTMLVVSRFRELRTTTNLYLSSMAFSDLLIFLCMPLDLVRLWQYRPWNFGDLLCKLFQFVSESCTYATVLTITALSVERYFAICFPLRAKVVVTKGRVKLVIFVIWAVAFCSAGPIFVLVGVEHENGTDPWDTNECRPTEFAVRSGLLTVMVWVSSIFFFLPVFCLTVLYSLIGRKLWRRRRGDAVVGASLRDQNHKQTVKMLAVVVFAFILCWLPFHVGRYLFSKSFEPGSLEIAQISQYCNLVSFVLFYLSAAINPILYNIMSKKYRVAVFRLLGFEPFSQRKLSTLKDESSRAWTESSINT

IC50	Compound
18 nM	CC(C)(N)C(=O)N[C@H](Cc1c[nH]c2ccccc12)c1nnc(CCc2c[nH]c3ccccc23)n1Cc1ccccc1 [compound 8, (R)—N-(1-(5-(2-(1H-indol-3-yl)ethyl)-4-benzyl-4H-1,2,4-triazol-3-yl)-2-(1H-indol-3-yl)ethyl)-2-amino-2-methylpropanamide]
32 nM	COc1cccc(Cn2c(CCCc3c[nH]c4ccccc34)nnc2[C@@H](Cc2c[nH]c3ccccc23)NC(=O)C(C)(C)N)c1 [compound 10, (R)—N-(1-(5-(3-(1H-indol-3-yl)propyl)-4-(3-methoxybenzyl)-4H-1,2,4-triazol-3-yl)-2-(1H-indol-3-yl)ethyl)-2-amino-2-methylpropanamide]
150 nM	CC(C)(N)C(=O)N[C@H](Cc1c[nH]c2ccccc12)c1nnc(CCCc2c[nH]c3ccccc23)n1Cc1ccc(Br)cc1 [compound 14, (R)—N-(1-(5-(3-(1H-indol-3-yl)propyl)-4-(4-bromobenzyl)-4H-1,2,4-triazol-3-yl)-2-(1H-indol-3-yl)ethyl)-2-amino-2-methylpropanamide]
240 nM	CCCCCCn1c(CCCc2c[nH]c3ccccc23)nnc1[C@@H](Cc1c[nH]c2ccccc12)NC(=O)C(C)(C)N [compound 16, (R)—N-(1-(5-(3-(1H-indol-3-yl)propyl)-4-hexyl-4H-1,2,4-triazol-3-yl)-2-(1H-indol-3-yl)ethyl)-2-amino-2-methylpropanamide]
83 nM	COc1ccc(Cn2c(CCc3c[nH]c4ccccc34)nnc2[C@H](Cc2c[nH]c3ccccc23)NC(=O)C(C)(C)N)c(OC)c1 [compound 18, (S)—N-(1-(5-(2-(1H-indol-3-yl)ethyl)-4-(2,4-dimethoxybenzyl)-4H-1,2,4-triazol-3-yl)-2-(1H-indol-3-yl)ethyl)-2-amino-2-methylpropanamide]
203 nM	COc1cc(Cn2c(CCc3c[nH]c4ccccc34)nnc2[C@@H](Cc2c[nH]c3ccccc23)NC(=O)C(C)(C)N)cc(OC)c1 [compound 21, (R)—N-(1-(5-(2-(1H-indol-3-yl)ethyl)-4-(3,5-dimethoxybenzyl)-4H-1,2,4-triazol-3-yl)-2-(1H-indol-3-yl)ethyl)-2-amino-2-methylpropanamide]
56 nM	COc1ccccc1Cn1c(CCc2ccccc2)nnc1[C@@H](Cc1c[nH]c2ccccc12)NC(=O)C(C)(C)N [compound 26, (R)—N-(1-(4-(2-methoxybenzyl)-5-phenethyl-4H-1,2,4-triazol-3-yl)-2-(1H-indol-3-yl)ethyl)-2-amino-2-methylpropanamide]

Further lines, the molecule ahead of its results:

Compound	IC50
CC(C)(N)C(=O)N[C@H](Cc1c[nH]c2ccccc12)c1nnc(CCCc2c[nH]c3ccccc23)n1Cc1cccc2ccccc12 [compound 11, (R)—N-(1-(5-(3-(1H-indol-3-yl)propyl)-4-(naphthalen-1-ylmethyl)-4H-1,2,4-triazol-3-yl)-2-(1H-indol-3-yl)ethyl)-2-amino-2-methylpropanamide]	137 nM
CCCCCCn1c(CCc2c[nH]c3ccccc23)nnc1[C@@H](Cc1c[nH]c2ccccc12)NC(=O)C(C)(C)N [compound 15, (R)—N-(1-(5-(2-(1H-indol-3-yl)ethyl)-4-hexyl-4H-1,2,4-triazol-3-yl)-2-(1H-indol-3-yl)ethyl)-2-amino-2-methylpropanamide]	120 nM
COc1cccc(Cn2c(CCc3ccccc3)nnc2[C@@H](Cc2c[nH]c3ccccc23)NC(=O)C(C)(C)N)c1 [compound 19, (R)—N-(1-(4-(3-methoxybenzyl)-5-phenethyl-4H-1,2,4-triazol-3-yl)-2-(1H-indol-3-yl)ethyl)-2-amino-2-methylpropanamide]	78 nM
COc1ccc(Cn2c(CCCc3c[nH]c4ccccc34)nnc2[C@@H](Cc2c[nH]c3ccccc23)NC(=O)C(C)(C)N)cc1 [compound 23, (R)—N-(1-(5-(3-(1H-indol-3-yl)propyl)-4-(4-methoxybenzyl)-4H-1,2,4-triazol-3-yl)-2-(1H-indol-3-yl)ethyl)-2-amino-2-methylpropanamide]	37 nM
COc1ccccc1Cn1c(CCc2c[nH]c3ccccc23)nnc1[C@@H](Cc1c[nH]c2ccccc12)NC(=O)C(C)(C)N [compound 25]	96 nM
